From patent US11306098B2, “Substituted pyrrolo[1,2-a]pyrazines and pyrrolo[1,2-a][1,4]diazepines as TREX1 inhibitors” (VENENUM BIODESIGN, LLC, priority 2019, dated 2022)

Columns and labels:
cleaved mouse TREX1 = cleaved mouse TREX1 (Mus musculus (Mouse), UniProt Q91XB0); test: TREX1 Thermal Shift Binding Assay (mouse); conditions: PBS, 100 μM compound, 5 μM TREX1; read-out: Thermal shift cleaved mouse TREX1, (ΔTm ° C.) PBS
Description: Example B is a protein thermal shift assay used to assess the binding of TREX1 inhibitors to TREX1 protein. In this assay, TREX1 protein unfolding with increasing temperature was measured in the presence and absence of TREX1 inhibitors by following the increase in fluorescence of a thiol-reactive dye (e.g BODIPY FL-cystine) as it reacts with exposed TREX1 cysteine residues. The assay was conducted using human (SEQ ID NO: 1), or murine (SEQ ID NO: 2) TREX1 protein constructs.
The thermal shift assays used recombinant protein corresponding to human (SEQ ID NO: 1) and murine (SEQ ID NO: 2) TREX1. The protein encoding plasmid contained a N-terminal MBP (maltose binding protein) tag followed by the TREX1 coding sequence within the pMAL-c5E vector. The plasmid was transfected into a BL21 (DE3) E. coli expression strain. Protein was purified from the bacterial lysate using an Amylose resin column. The MBP tag was cleaved from the purified protein using recombinant enterokinase (EMD Millipore #69066-3). The cleaved TREX1 protein was further purified on a Q-Sepharose column followed by a heparin column.
Binding of compounds to both human and murine TREX1 were measured by protein thermal shift assays. (Huynh K, Partch C L. Current Protocols in Protein Science: Analysis of protein stability and ligand interactions by thermal shift assay. Current protocols in protein science/editorial board, John E Coligan. [et al]. 2015; 79:28.9.1-28.9.14. doi:10.1002/0471140864.ps2809s79.). Thermal shift assays were conducted in sealed 96-well PCR plates containing 5 μM TREX1 protein, 100 μM compound, and 2 μM BODIPY FL-cystine (Sigma) in either 20 μL assay buffer (20 mM Tris, 7.5, 5 mM MgCl2, 0.002% Triton X-100) or 20 μL phosphate buffered saline (PBS). Using a RT-qPCR machine (Mx3005P, Stratagene) changes in fluorescence (excitation at 492 nm and emission at 516 nm) were monitored as temperature was increased from 25° C. to 96° C. at a rate of 1° C. every 2 minutes. Tm values were calculated from the first derivative plot of fluorescence intensity versus temperature. The results shown in Table 6 indicate the examples bind to human TREX1 and murine TREX1. ND indicates assay was not done.

[1] = test system: interferon stimulated genes (ISGs) in THP1 Dual cells; test: RT-qPCR assay of interferon stimulated gene expression; type: cell-based, human; conditions: substance alone, 24 hours, normalized to GAPDH, unstimulated control = 1
Source text: Example D is a cell based assay that measures the increase in the expression of interferon stimulated genes (ISG) by RT-qPCR that are induced by TREX1 inhibitors when THP1 Dual™ cells are transfected with double-stranded DNA. The double stranded DNA used to transfect cells was VACV-70 (Invivogen), a 70 base pair oligonucleotide containing viral DNA motifs (Unterholzner L. et al., 2010. IFI16 is an innate immune sensor for intracellular DNA. Nat Immunol. 11(11):997-1004). Activation of cGAS-STING pathway in THP1 Dual™ cells increases the expression of ISGs.
The RT-qPCR assay was used to assess the ability of TREX1 inhibitors to enhance the expression of interferon stimulated genes (ISGs) in cells transfected with double-stranded DNA. The double stranded DNA used to transfect cells was VACV-70 (Invivogen), a 70 base pair oligonucleotide containing viral DNA motifs (Unterholzner L. et al., 2010. IFI16 is an innate immune sensor for intracellular DNA. Nat Immunol. 11(11):997-1004). Human THP1 Dual™ cells (Invivogen), were treated with test compound in the presence or absence of 1,200 ng/mL VACV-70, or with VACV-70 alone, for 24 hours. Cells were harvested by centrifugation and washed with phosphate buffer saline. Total RNA was isolated using Qiagen RNeasy mini kit. Genomic DNA was degraded using Thermo Scientific DNase 1 kit. Total RNA was quantified using a Nanodrop spectrophotometer. Using equal amounts of RNA, cDNA was synthesized using Invitrogen Superstrand III First Strand synthesis kit. Target and reference gene expression levels were determined by RT-qPCR using TaqMan gene expression assays and a Stratagene Mx3005P QPCR system (all reagents were from TaqMan, Applied Biosystems). Data were analyzed by the Comparative CT method. GAPDH was used for normalization. Target genes that were analyzed included interferon stimulated genes (INF-β, CXCL10, IFIT1, IFIT2, IFIT3, IFI44, and IFI44L).

Chain of cleaved mouse TREX1 (Q91XB0 1-242): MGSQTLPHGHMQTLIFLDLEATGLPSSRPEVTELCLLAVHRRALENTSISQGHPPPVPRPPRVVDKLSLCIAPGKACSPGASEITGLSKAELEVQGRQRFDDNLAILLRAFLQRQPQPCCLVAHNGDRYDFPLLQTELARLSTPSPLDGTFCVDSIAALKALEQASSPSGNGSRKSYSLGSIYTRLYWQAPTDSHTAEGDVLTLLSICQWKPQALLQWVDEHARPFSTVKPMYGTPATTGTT

SMILES: N[C@@H]1C[C@H]2C(=O)N([C@H](CCC(=O)O)C(=O)NCc3ccc(Cl)c(Cl)c3)CCC(CCc3ccccc3)N2C1 (some centres unmarked) [Example 14B]
- ΔTm at 100 µM (cleaved mouse TREX1): > 8 °C
- CXCL10 expression [1]: 2
- IFI44L expression [1]: 65
- IFI44 expression [1]: 54
- IFIT1 expression [1]: 19
- IFIT2 expression [1]: 44
- IFIT3 expression [1]: 25
- IFN-β expression [1]: 7
